Four compounds from patent US6518260B1, “(α-aminophosphino) peptide derivatives, method for making same and therapeutic applications thereof” (Institut National de la Sante et de la Recherche Medicale …, priority 1996, dated 2003) can be followed below.

SMILES strings stand for the structures.

Regarding `Br.NC(Cc1ccccc1)P(=O)(O)CC(Cc1ccccc1)C(=O)N[C@H](CC(=O)O)Cc1ccccc1` (stereo partly shown), the melting point was 240 °C. In turn, `NC(Cc1ccccc1)P(=O)(CC(Cc1ccccc1)C(=O)N[C@@H](Cc1ccccc1)C(=O)OCc1ccccc1)OCc1ccccc1.O=CO` (stereo partly shown) yielded a melting point of 192 °C. Under `CC(N)P(=O)(O)CC(Cc1ccc(-c2ccccc2)cc1)C(=O)N[C@@H](C)C(=O)OCc1ccccc1.O=C(O)C(F)(F)F` (stereo partly shown) stands 205 °C. For the compound `NC(Cc1ccccc1)P(=O)(O)CC(Cc1ccccc1)C(=O)N[C@@H](Cc1ccccc1)C(=O)OCc1ccccc1.O=C(O)C(F)(F)F` (stereo partly shown), the melting point came to 210 °C.

The melting point is the temperature of the solid-liquid transition.
